Results on five compounds are retold here after patent publication US6599748B1, “Hardness indicator composition and method of water hardness analysis” (Miura Co., Ltd., priority 1999, dated 2003).

A short description of data set [1]: Ca chelate stability constant (chelating power with calcium). It counts as physicochemical. An excerpt: […]. […] […].
On data set [2], the source says: Therefore, the desensitizer to be added to the metal indicator is explained. […] However, the desensitizer differs from the metal indicator in that the metal indicator forms complex ions in combination with all hardness-component metal ions, while the desensitizer forms complex ions in combination with part of the hardness-component metal ions. […] Symbol “ ” in results represents usableness as the desensitizer, and “×” represents unusableness as the desensitizer.
Accordingly, Table 1 show the results of judgment determined by taking into account these conditions.

Like-named read-outs stand apart in the source and are kept apart here.

Regarding `O=C([O-])CC(O)(CC(=O)O)C(=O)[O-].[K+].[K+]` [2K citrate], in data set [1], the “Ca chelate stability constant, logK” value is <2.0.

Take `O=C([O-])CNCC(=O)[O-].[K+].[K+]` [2K iminodiacetate]: the “Ca chelate stability constant, logK” value in data set [1] is reported as 2.59.

`O=C([O-])CC(O)(CC(=O)[O-])C(=O)[O-].[Na+].[Na+].[Na+]` [2Na citrate, sodium citrate]: the “Ca chelate stability constant, logK” value in data set [1] (chelating power with calcium) is recorded as <2.0.

`O=C([O-])CNCC(=O)[O-].[Na+].[Na+]` [2Na iminodiacetate, sodium iminodiacetate]: in data set [1], the “Ca chelate stability constant, logK” value is 2.59. The “Solubility, g/100 g water” value in data set [2] worked out at 10 g/100 g water.

sodium polyacrylate [Na polyacrylate]: the “Ca chelate stability constant, logK” value in data set [1] is <2.0. The “Solubility, g/100 g water” value in data set [2] is reported as “over 40 g/100 g water”.
